Data taken from the NIST ThermoML archive (doi:10.1021/je900210h).

Details: Fluid (supercritical or subcritical phases), Coaxial cylinder method

FCC(F)(F)F [1,1,1,2-tetrafluoroethane]
Details | thermal conductivity [W/m/K]
375.18 K, 4340 kPa | 0.055
375.18 K, 4942 kPa | 0.0559
375.18 K, 5054 kPa | 0.0557
375.18 K, 5057 kPa | 0.055
375.19 K, 4163 kPa | 0.0881
375.19 K, 4379 kPa | 0.0546
375.19 K, 4458 kPa | 0.0541
375.19 K, 4551 kPa | 0.0545
375.19 K, 4557 kPa | 0.0538
375.2 K, 4166 kPa | 0.0849
375.2 K, 4456 kPa | 0.053
375.21 K, 4170 kPa | 0.0823
375.21 K, 4171 kPa | 0.0814
375.23 K, 4178 kPa | 0.0777
375.23 K, 4181 kPa | 0.076
375.24 K, 4120 kPa | 0.1016
375.24 K, 4189 kPa | 0.0731
375.28 K, 4145 kPa | 0.0986
375.28 K, 4150 kPa | 0.1002
375.28 K, 4156 kPa | 0.1002
375.28 K, 4162 kPa | 0.0994
375.28 K, 4167 kPa | 0.0984
375.28 K, 4208 kPa | 0.0667
375.29 K, 4139 kPa | 0.0943
375.29 K, 4174 kPa | 0.0955
375.3 K, 4089 kPa | 0.0573
375.3 K, 4181 kPa | 0.0927
375.3 K, 4229 kPa | 0.0627
375.31 K, 4189 kPa | 0.0889
375.31 K, 4254 kPa | 0.0613
375.31 K, 4265 kPa | 0.061
375.31 K, 4294 kPa | 0.0605
375.31 K, 4307 kPa | 0.0603
375.31 K, 4341 kPa | 0.06
375.32 K, 4130 kPa | 0.0916
375.32 K, 4134 kPa | 0.0856
375.32 K, 4197 kPa | 0.0848
375.32 K, 4389 kPa | 0.0592
375.32 K, 4450 kPa | 0.0585
375.32 K, 4490 kPa | 0.0588
375.33 K, 4129 kPa | 0.087
375.33 K, 4204 kPa | 0.0816
375.34 K, 3828 kPa | 0.0367
375.34 K, 4085 kPa | 0.0517
375.34 K, 4126 kPa | 0.0773
375.36 K, 4121 kPa | 0.0721
375.36 K, 4216 kPa | 0.0746
375.37 K, 4128 kPa | 0.0763
375.38 K, 4225 kPa | 0.0686
375.39 K, 4235 kPa | 0.0668
375.4 K, 4126 kPa | 0.0683
375.4 K, 4244 kPa | 0.0645
375.42 K, 3349 kPa | 0.0298
375.42 K, 4115 kPa | 0.0611
375.42 K, 4265 kPa | 0.0608
375.43 K, 4051 kPa | 0.0425
375.43 K, 4280 kPa | 0.0596
375.43 K, 4292 kPa | 0.0588
375.45 K, 4349 kPa | 0.0567
375.46 K, 4029 kPa | 0.0397
375.46 K, 4107 kPa | 0.0545
375.46 K, 4118 kPa | 0.0591
375.46 K, 4473 kPa | 0.0555
375.46 K, 4527 kPa | 0.055
375.46 K, 4625 kPa | 0.055
375.46 K, 4681 kPa | 0.0552
375.46 K, 4735 kPa | 0.0582
375.48 K, 4848 kPa | 0.0566
375.49 K, 4097 kPa | 0.0508
375.51 K, 4107 kPa | 0.0521
375.52 K, 4086 kPa | 0.0475
375.53 K, 4097 kPa | 0.0492
375.56 K, 4055 kPa | 0.0434
375.58 K, 4040 kPa | 0.0421
375.59 K, 3196 kPa | 0.0287
375.6 K, 4065 kPa | 0.0432
375.61 K, 3999 kPa | 0.0395
375.61 K, 4059 kPa | 0.0425
375.63 K, 3965 kPa | 0.0378
375.65 K, 4023 kPa | 0.0393
375.66 K, 3917 kPa | 0.0361
375.69 K, 3874 kPa | 0.0343
375.72 K, 4178 kPa | 0.0857
375.72 K, 4187 kPa | 0.0881
375.73 K, 3772 kPa | 0.0319
375.73 K, 4179 kPa | 0.083
375.73 K, 4199 kPa | 0.0841
375.74 K, 4210 kPa | 0.0799
375.76 K, 3000 kPa | 0.0274
375.76 K, 3658 kPa | 0.0306
375.76 K, 4161 kPa | 0.0752
